# Experimental data as given in US11607419B2, “Inhibitors of RAC1 and uses thereof for inducing bronchodilatation” (INSTITUT NATIONAL DE LA SANTE ET DE LA RECHERCHE MEDICALE …, priority 2017, dated 2023).
# pIC50: −log10 of the molar value.
# What was measured:
# [1] = molecular target: T1, RAC1 (Homo sapiens, UniProt P63000)
# [2] = molecular target: T1, RAC1; settings: compared with NSC23766
# [3] = molecular target: T2, Rac-GTP (Rac1 activity) in NIH3T3 cells (Mus musculus, UniProt P63001); assay: Rac activation: active Rac immunoprecipitation and immunoblot of Rac-GTP in fibroblasts stimulated by a Rac activator; assay type: cell-based; settings: pre-incubated 1 h
# T2 construct: endogenous in cells; host or cells: NIH3T3
# Experimental: (§1) Cell culture, transfection and actin staining. NIH3T3 cells grew up in DMEM (Gibco; Invitrogen) containing 10% foetal bovine serum, 100 units/mL penicillin and 100 μg/mL streptomycin at 37° C. and 5% CO2. The culture medium was changed every 72 hours.
# Analysis of Rac1 activity. In NIH3T3 cells lysates, Rac1 activity was evaluated by active Rac immunoprecipitation using anti-Rac-GTP antibody (26903, NewEast Biosciences). The precipitated active Rac was subjected to SDS-PAGE and detected by immunoblot with anti-Rac1 antibody (BD biosciences).
# [4] = system: Rac1-dependent ruffle formation in NIH3T3 cells; assay: Rac activator-induced membrane ruffling (actin staining) in fibroblasts; assay type: cell-based; settings: fibroblasts, dose-dependent inhibition
# Experimental: as §1
# After treatments, fibroblasts were fixed with 4% paraformaldehyde in PBS, permeabilized in PBS 0.5% Triton X-100, and incubated with 130 μg/mL of FITC-conjugated phalloidin (Sigma) to visualize F-actin. After staining, images were captured by a fluorescence microscope (Nikon). The actin cytoskeleton organization was analyzed to observe Rac1-dependent ruffle formation.
# [5] = system: fibroblast adhesion; assay: Cell adhesion assay using impedance technology; assay type: cell-based; settings: fibroblasts, 10 μm
# Experimental: Cell adhesion assay using impedance technology. Cells (10000/well) were seeded in a 96 well plate microtiter xCELLigence assay plate (E-Plate) (ACEA Biosciences Inc.) and placed on the Real-time xCELLigence Cell Analyzer (Roche Applied Science) platform at 37° C. to measure the “cell index” every 5 min for a period of 6 hours. The cell index unit is defined as (Rn−Rb)/15. Rn is the cell electrode impedance of the well when it contains cells. Rb is the background impedance of the well with the media alone.
melting point [°C],Compound,other results
84,COc1ccc(OC)c(NS(=O)(=O)c2ccc(NC(=O)C#C[Si](C)(C)C)cc2)c1,–
–,"COc1ccc(NS(=O)(=O)c2ccc(NC(=O)CCSc3ccc(C)cc3)cc2)c(OC)c1 [(1), N-(4-(N-(2,4-dimethoxyphenyl)sulfamoyl)phenyl)-3-(p-tolylthio)propanamide]",pIC50 [1]: 7.52; Relative activity (NSC23766) [2]: >
126,"COc1ccc(OC)c(NS(=O)(=O)c2ccc(NC(=O)CCCc3ccc(C)cc3)cc2)c1 [(3), N-(4-(N-(2,5-dimethoxyphenyl)sulfamoyl)phenyl)-4-(p-tolyl) butanamide]",–
126,COc1ccc(OC)c(NS(=O)(=O)c2ccc(NC(=O)CSc3ccc(C)cc3)cc2)c1 [(4)],–
126,"C=CC(=O)Nc1ccc(S(=O)(=O)Nc2cc(OC)ccc2OC)cc1 [(5), N-(4-(N-(2,5-dimethoxyphenyl)sulfamoyl)phenyl)acrylamide]",pIC50 [1]: 10.00; Relative activity (NSC23766) [2]: >
145,"COc1ccc(OC)c(NS(=O)(=O)c2ccc(NC(=O)CCOc3ccc(C)cc3)cc2)c1 [(6), N-(4-(N-(2,5-dimethoxyphenyl)sulfamoyl)phenyl)-3-(p-tolyloxy)propanamide]",pIC50 [1]: 9.00; Relative activity (NSC23766) [2]: >
153,"COc1ccc(OC)c(NC(=O)c2ccc(NC(=O)CCSc3ccc(C)cc3)cc2)c1 [(7), N-(2,5-dimethoxyphenyl)-4-(3-(p-tolylthio)propanamido) benzamide]",–
153,COc1ccc(OC)c(NS(=O)(=O)c2ccc(NC(=O)CCCSc3ccc(C)cc3)cc2)c1 [(8)],–
165,"COc1ccc(OC)c(NS(=O)(=O)c2ccc([N+](=O)[O-])cc2)c1 [(9), N-(2,5-dimethoxyphenyl)-4-nitrobenzenesulfonamide]",–
126,"COc1ccc(OC)c(NS(=O)(=O)c2ccc(N)cc2)c1 [(10), 4-amino-N-(2,5-dimethoxyphenyl)benzenesulfonamide]",–
170,"CCC(=O)Nc1ccc(S(=O)(=O)Nc2cc(OC)ccc2OC)cc1 [(11), N-(4-(N-(2,5-dimethoxyphenyl)sulfamoyl)phenyl) propionamide]",–
220.8,"C=CC(=O)Nc1ccc(S(=O)(=O)N(C(=O)C=C)c2cc(OC)ccc2OC)cc1 [(16), N-acryloyl-N′-(4-(N-(2,5-dimethoxyphenyl)sulfamoyl)phenyl) acrylamide]",–
156.5,"COc1ccccc1NS(=O)(=O)c1ccc([N+](=O)[O-])cc1 [(17), N-(2-methoxyphenyl)-4-nitrobenzenesulfonamide]",pIC50 [1]: 9.00; Relative activity (NSC23766) [2]: >
–,"COc1ccccc1NS(=O)(=O)c1ccc(N)cc1 [(18), 4-amino-N-(2-methoxyphenyl)-benzenesulfonamide]",pIC50 [1]: 9.00; Relative activity (NSC23766) [2]: >
143.5,"COc1ccccc1NS(=O)(=O)c1ccc(NC(=O)CCSc2ccc(C)cc2)cc1 [(19), N-(4-(N-(2-methoxyphenyl)sulfamoyl)phenyl)-3-(p-tolylthio) propanamide]",pIC50 [1]: 9.00; Relative activity (NSC23766) [2]: >
169.3,"COc1ccccc1NS(=O)(=O)c1ccc(NC(=O)CSc2ccc(C)cc2)cc1 [(20), N-(4-(N-(2-methoxyphenyl)sulfamoyl)phenyl)-2-(p-tolylthio) acetamide]",pIC50 [1]: 9.00; Relative activity (NSC23766) [2]: >
119.4,"COc1cccc(NS(=O)(=O)c2ccc([N+](=O)[O-])cc2)c1 [(21), N-(3-methoxyphenyl)-4-nitrobenzenesulfonamide]",–
–,COc1cccc(NS(=O)(=O)c2ccc(N)cc2)c1 [(22)],pIC50 [1]: 9.00; Relative activity (NSC23766) [2]: >
156.8,"COc1cccc(NS(=O)(=O)c2ccc(NC(=O)CCSc3ccc(C)cc3)cc2)c1 [(23), N-(4-(N-(3-methoxyphenyl)sulfamoyl)phenyl)-3-(p-tolylthio) propanamide]",–
148.1,"COc1ccc(OC)c(NS(=O)(=O)c2ccc(NC(=O)CC[S+]([O-])c3ccc(C)cc3)cc2)c1 (stereo not drawn) [(24), N-(4-(N-(2,5-dimethoxyphenyl)sulfamoyl)phenyl)-3-(p-tolylsulfinyl)propanamide]",–
180.3,"COc1ccc(OC)c(NS(=O)(=O)c2ccc(NC(=O)CCS(=O)(=O)c3ccc(C)cc3)cc2)c1 [(25), N-(4-(N-(2,5-dimethoxyphenyl)sulfamoyl)phenyl)-3-tosyl-propanamide]",–
48,"COc1ccc(OC)c(N(C)S(=O)(=O)c2ccc(NC(=O)CCSc3ccc(C)cc3)cc2)c1 [(26), N-(4-(N-(2,5-dimethoxyphenyl)-N-methylsulfamoyl)phenyl)-3-(p-tolylthio)propanamide]",–
200,"C#CC(=O)Nc1ccc(S(=O)(=O)Nc2cc(OC)ccc2OC)cc1 [(27), N-(4-(N-(2,5-dimethoxyphenyl)sulfamoyl)phenyl) propiolamide]",–
162,"Cc1ccc(SCCC(=O)Nc2ccc(S(=O)(=O)Nc3ccccc3F)cc2)cc1 [(30), N-(4-(N-(2-fluorophenyl)sulfamoyl)phenyl)-3-(p-tolylthio) propanamide]",–
190,"COc1ccc(OC)c(NS(=O)(=O)c2ccc(NC(=O)CCl)cc2)c1 [(31), 2-chloro-N-(4-(N-(2,5-dimethoxyphenyl)sulfamoyl)phenyl) acetamide]",–
161,"COc1ccc(NS(=O)(=O)c2ccc([N+](=O)[O-])cc2)c(OC)c1 [Example 1, N-(2,4-dimethoxyphenyl)-4-nitrobenzenesulfonamide]",–
166,O=[N+]([O-])c1ccc(S(=O)(=O)Nc2ccccc2F)cc1 [Example 5],–
115,"COc1ccc(NS(=O)(=O)c2ccc(N)cc2)c(OC)c1 [Example 6, 4-amino-N-(2,4-dimethoxyphenyl)benzenesulfonamide]",–
190,Nc1ccc(S(=O)(=O)Nc2ccccc2F)cc1 [Example 10],–
–,"CCN(CC)CCCC(C)Nc1nc(C)cc(Nc2ccc3nc(C)cc(N)c3c2)n1 (stereo not drawn) [NSC23766, reference compound]",Rac activation (Rac-GTP level) by a Rac activator [3]: prevented; pIC50 [4]: 5.59; adhesion rate of the cells [5]: slow down
